Experimental data from US12516044B2, “Heterocyclic compounds as immunomodulators” (Incyte Corporation, priority 2015, dated 2026).

molecular target: T1, PD-1/PD-L1 protein/protein interaction (Homo sapiens, UniProt Q9NZQ7); assay: PD-1/PD-L1 Homogeneous Time-Resolved Fluorescence (HTRF) Binding Assay; conditions: recombinant human PD-L1 (19-238) His-tag and human PD-1 (25-167) Fc tag; 25° C., PBS pH 7.4
T1 construct: Recombinant human PD-L1 protein (19-238) with a His-tag at the C-terminus; purchased AcroBiosystems PD1-H5229 (PD-L1-His); PD1-H5257 (PD-1-Fc)
Description: Example A. PD-1/PD-L1 Homogeneous Time-Resolved Fluorescence (HTRF) Binding Assay
The assays were conducted in a standard black 384-well polystyrene plate with a final volume of 20 μL. Inhibitors were first serially diluted in DMSO and then added to the plate wells before the addition of other reaction components. The final concentration of DMSO in the assay was 1%. The assays were carried out at 25° C. in the PBS buffer (pH 7.4) with 0.05% Tween-20 and 0.1% BSA. Recombinant human PD-L1 protein (19-238) with a His-tag at the C-terminus was purchased from AcroBiosystems (PD1-H5229). Recombinant human PD-1 protein (25-167) with Fc tag at the C-terminus was also purchased from AcroBiosystems (PD1-H5257). PD-L1 and PD-1 proteins were diluted in the assay buffer and 10 μL was added to the plate well. Plates were centrifuged and proteins were preincubated with inhibitors for 40 minutes. The incubation was followed by the addition of […] of HTRF detection buffer supplemented with Europium cryptate-labeled anti-human IgG (PerkinElmer-AD0212) specific for Fc and anti-His antibody conjugated to SureLight®-Allophycocyanin (APC, PerkinElmer-AD0059H). After centrifugation, the plate was incubated at 25° C. for 60 min. before reading on a PHERAstar FS plate reader (665 nm/620 nm ratio). Final concentrations in the assay were […] PD1, 10 nM PD-L1, 1 nM europium anti-human IgG and 20 nM anti-His-Allophycocyanin. IC50 determination was performed by fitting the curve of percent control activity versus the log of the inhibitor concentration using the GraphPad Prism 5.0 software.

T1 sequence (Q9NZQ7 19-238): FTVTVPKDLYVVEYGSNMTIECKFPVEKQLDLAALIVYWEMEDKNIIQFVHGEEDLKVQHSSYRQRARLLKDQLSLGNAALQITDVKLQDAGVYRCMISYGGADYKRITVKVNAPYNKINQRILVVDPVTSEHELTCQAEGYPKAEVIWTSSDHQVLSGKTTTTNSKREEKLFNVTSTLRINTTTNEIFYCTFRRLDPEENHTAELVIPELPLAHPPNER

IC50 | SMILES
10 to 100 nM | N#Cc1c(NC(=O)c2ccc(CNCCO)cn2)cccc1C1=COCCC1 [Example 44, N-[2-cyano-3-(3,4-dihydro-2H-pyran-5-yl)phenyl]-5-{[(2-hydroxyethyl)amino]methyl}pyridine-2-carboxamide]
≤ 10 nM | COc1cc(C(=O)Nc2cccc(-c3ccccc3)c2C)ncc1CNCCO [Example 35, 5-{[(2-hydroxyethyl)amino]methyl}-4-methoxy-N-(2-methylbiphenyl-3-yl)pyridine-2-carboxamide]
10 to 100 nM | Cc1c(NC(=O)c2cc(OCC3CC3)c(CNCCO)cn2)cccc1-c1ccccc1 [Example 34, 4-(cyclopropylmethoxy)-5-((2-hydroxyethylamino)methyl)-N-(2-methylbiphenyl-3-yl)picolinamide]
10 to 100 nM | Cc1cnc(C(=O)Nc2cccc(-c3ccccc3)c2C)cc1CN1CCCC[C@H]1C(=O)O [Example 36, (2S)-1-[(5-methyl-2-{[(2-methylbiphenyl-3-yl)amino]carbonyl}pyridin-4-yl)methyl]piperidine-2-carboxylic Acid]
10 to 100 nM | Cc1cnc(C(=O)Nc2cccc(-c3ccccc3)c2C)cc1CNCCO [Example 37, 4-{[(2-hydroxyethyl)amino]methyl}-5-methyl-N-(2-methylbiphenyl-3-yl)pyridine-2-carboxamide]
> 1000 nM | N#Cc1c(NC(=O)c2ccc(CNCCO)cn2)cccc1N1CCCCC1 [Example 39, N-(2-cyano-3-piperidin-1-ylphenyl)-5-{[(2-hydroxyethyl)amino]methyl}pyridine-2-carboxamide]
10 to 100 nM | N#Cc1c(NC(=O)c2ccc(CNCCO)cn2)cccc1-c1ccc2c(c1)OCC2 [Example 47, N-[2-cyano-3-(2,3-dihydro-1-benzofuran-6-yl)phenyl]-5-{[(2-hydroxyethyl)amino]methyl}pyridine-2-carboxamide]
10 to 100 nM | Cn1cc2ccc(-c3cccc(NC(=O)c4ccc(CNCCO)cn4)c3C#N)cc2n1 [Example 48, N-[2-cyano-3-(2-methyl-2H-indazol-6-yl)phenyl]-5-{[(2-hydroxyethyl)amino]methyl}pyridine-2-carboxamide]
≤ 10 nM | Cc1cc(C(=O)Nc2cccc(-c3ccccc3)c2C)ncc1CNCCO [Example 33, 5-{[(2-hydroxyethyl)amino]methyl}-4-methyl-N-(2-methylbiphenyl-3-yl)pyridine-2-carboxamide]
> 1000 nM | Cc1c(NC(=O)c2ccc(CN3CCCC[C@H]3C(=O)O)cn2)ccnc1-c1ccccc1 [Example 42, (S)-1-((6-(3-methyl-2-phenylpyridin-4-ylcarbamoyl)pyridin-3-yl)methyl)piperidine-2-carboxylic Acid]
≤ 10 nM | Cn1ncc2c(-c3cccc(NC(=O)c4ccc(CNCCO)cn4)c3C#N)cccc21 [Example 49, N-[2-cyano-3-(1-methyl-1H-indazol-4-yl)phenyl]-5-{[(2-hydroxyethyl)amino]methyl}pyridine-2-carboxamide]
≤ 10 nM | N#Cc1c(NC(=O)c2ccc(CNCCO)cn2)cccc1C1=CCCCC1 [Example 38, N-(2-cyano-3-cyclohex-1-en-1-ylphenyl)-5-{[(2-hydroxyethyl)amino]methyl} pyridine-2-carboxamide]
100 to 1000 nM | Cc1c(NC(=O)c2ccc(CNCCO)cn2)ccnc1-c1ccccc1 [Example 43, 5-{[(2-hydroxyethyl)amino]methyl}-N-(3-methyl-2-phenylpyridin-4-yl)pyridine-2-carboxamide]

Second part, the molecule before the results:

SMILES | IC50
Cc1c(NC(=O)c2ncc(CN3CCCC[C@H]3C(=O)O)cn2)cccc1-c1ccccc1 [Example 5, (2S)-1-[(2-{[(2-methylbiphenyl-3-yl)amino]carbonyl}pyrimidin-5-yl)methyl]piperidine-2-carboxylic Acid] | 100 to 1000 nM
Cc1c(NC(=O)c2cc(-c3ccncc3)c(CNCCO)cn2)cccc1-c1ccccc1 [Example 31, 5-{[(2-hydroxyethyl)amino]methyl}-N-(2-methylbiphenyl-3-yl)-4,4′-bipyridine-2-carboxamide] | 10 to 100 nM
Cc1c(NC(=O)c2ncc(CNCCO)cc2F)cccc1-c1ccccc1 [Example 17, 3-fluoro-5-{[(2-hydroxyethyl)amino]methyl}-N-(2-methylbiphenyl-3-yl)pyridine-2-carboxamide] | 10 to 100 nM
Cc1c(NC(=O)c2cc(OCc3ccccn3)c(CNCCO)cn2)cccc1-c1ccccc1 [Example 20, 5-{[(2-hydroxyethyl)amino]methyl}-N-(2-methylbiphenyl-3-yl)-4-(pyridin-2-ylmethoxy)pyridine-2-carboxamide] | 10 to 100 nM
N#Cc1c(NC(=O)c2ccc(CN3CCCC[C@H]3C(=O)O)cn2)cccc1-c1ccc2c(c1)OCCO2 [Example 9, (2S)-1-{[6-({[2-cyano-3-(2,3-dihydro-1,4-benzodioxin-6-yl)phenyl]amino}carbonyl)pyridin-3-yl]methyl}piperidine-2-carboxylic Acid] | 10 to 100 nM
Cc1c(NC(=O)c2ccncn2)cccc1-c1ccccc1 [Example 27, N-(2-methylbiphenyl-3-yl)pyrimidine-4-carboxamide] | 10 to 100 nM
Cc1c(NC(=O)c2cnccn2)cccc1-c1ccccc1 [Example 26, N-(2-methylbiphenyl-3-yl)pyrazine-2-carboxamide] | 10 to 100 nM
Cc1c(NC(=O)c2ncc(CN3CCCC[C@H]3C(=O)O)cc2Cl)cccc1-c1ccccc1 [Example 15, (2S)-1-[(5-chloro-6-{[(2-methylbiphenyl-3-yl)amino]carbonyl}pyridin-3-yl)methyl]piperidine-2-carboxylic Acid] | 100 to 1000 nM
Cc1c(NC(=O)c2ncc(CNCCO)cc2N(C)C)cccc1-c1ccccc1 [Example 21, 3-(dimethylamino)-5-{[(2-hydroxyethyl)amino]methyl}-N-(2-methylbiphenyl-3-yl)pyridine-2-carboxamide] | 100 to 1000 nM
Cc1c(NC(=O)c2cc(OCc3cccc(C#N)c3)c(CNCCO)cn2)cccc1-c1ccccc1 [Example 18, 4-[(3-cyanobenzyl)oxy]-5-{[(2-hydroxyethyl)amino]methyl}-N-(2-methylbiphenyl-3-yl)pyridine-2-carboxamide] | 10 to 100 nM
Cc1nc(C(=O)Nc2cccc(-c3ccccc3)c2C)ccc1CNCCO [Example 14, 5-{[(2-hydroxyethyl)amino]methyl}-6-methyl-N-(2-methylbiphenyl-3-yl)pyridine-2-carboxamide] | 10 to 100 nM
Cc1c(NC(=O)c2ccc(CNCCO)cn2)cccc1-c1ccccc1 [Example 2, 5-{[(2-hydroxyethyl)amino]methyl}-N-(2-methylbiphenyl-3-yl)pyridine-2-carboxamide] | 10 to 100 nM
Cc1nc(C(=O)Nc2cccc(-c3ccccc3)c2C)ccc1CN1CCCC[C@H]1C(=O)O [Example 13, (2S)-1-[(2-methyl-6-{[(2-methylbiphenyl-3-yl)amino]carbonyl}pyridin-3-yl)methyl]piperidine-2-carboxylic Acid] | 100 to 1000 nM
Cc1c(NC(=O)c2cnc(CNCCO)cn2)cccc1-c1ccccc1 [Example 11, 5-{[(2-hydroxyethyl)amino]methyl}-N-(2-methylbiphenyl-3-yl)pyrazine-2-carboxamide] | 10 to 100 nM
Cc1c(NC(=O)c2ncc(CNCCO)cc2Cl)cccc1-c1ccccc1 [Example 16, 3-chloro-5-{[(2-hydroxyethyl)amino]methyl}-N-(2-methylbiphenyl-3-yl)pyridine-2-carboxamide] | 10 to 100 nM
N#Cc1c(NC(=O)c2ccc(CNCCO)cn2)cccc1-c1ccc2c(c1)OCCO2 [Example 10, N-(2-cyano-3-(2,3-dihydrobenzo[b][1,4]dioxin-6-yl)phenyl)-5-((2-hydroxyethylamino)methyl)picolinamide] | ≤ 10 nM
Cc1c(NC(=O)c2cc(CNCCO)ccn2)cccc1-c1ccccc1 [Example 23, 4-{[(2-hydroxyethyl)amino]methyl}-N-(2-methylbiphenyl-3-yl)pyridine-2-carboxamide] | 10 to 100 nM
Cc1c(NC(=O)c2cc(OCc3cccnc3)ncn2)cccc1-c1ccccc1 [Example 24, N-(2-methylbiphenyl-3-yl)-6-(pyridin-3-ylmethoxy)pyrimidine-4-carboxamide] | 100 to 1000 nM
Cc1c(NC(=O)c2cc(C#N)ccn2)cccc1-c1ccccc1 [Example 25, 4-cyano-N-(2-methylbiphenyl-3-yl)pyridine-2-carboxamide] | 10 to 100 nM
Cc1cc(C(=O)Nc2cccc(-c3ccccc3)c2C)ncc1CN1CCCC[C@H]1C(=O)O [Example 32, (2S)-1-[(4-methyl-6-{[(2-methylbiphenyl-3-yl)amino]carbonyl}pyridin-3-yl)methyl]piperidine-2-carboxylic Acid] | ≤ 10 nM
N#Cc1c(NC(=O)c2ccc(CN3CCCC[C@H]3C(=O)O)cn2)cccc1-c1ccccc1 [Example 7, (2S)-1-[(6-{[(2-cyanobiphenyl-3-yl)amino]carbonyl}pyridin-3-yl)methyl]piperidine-2-carboxylic Acid] | 10 to 100 nM
Cc1c(NC(=O)c2ccnc(OCc3cccnc3)n2)cccc1-c1ccccc1 [Example 30, N-(2-methylbiphenyl-3-yl)-2-(pyridin-3-ylmethoxy)pyrimidine-4-carboxamide] | 100 to 1000 nM
